Where two headings read alike, the source gives them in different places.

Experimental findings from patent US9963455B2, “Pyrazolo[1,5-a]pyrimidines as antiviral compounds” (Curovir AB, priority 2014, dated 2018) are described below.

Holding throughout (format): cell-based
Experiment [1] relates to coxsackie B virus strain 1. The experiment can be described thus: CPE inhibition in mammalian cell culture, Cox-B1. The arrangement: inhibition: dose or concentration left out as unconfirmed. As to conditions: for inhibition at 5000 µM / inhibition / inhibition at 1000 µM: read-out: antiviral effect, B1.
The test system of experiment [2] is Human parechovirus strain 1. The experiment can be described thus: CPE inhibition in mammalian cell culture, HPeV-1. The note with it: Parechovirus A, read-out: antiviral effect, HPeV-1; for inhibition at 5 µM: Conc. 5 µM; for inhibition at 100 µM: Conc. 0.1 mM.
Experiment [3] relates to coxsackie B virus strain 5. Briefly: CPE inhibition in mammalian cell culture, Cox-B5. The arrangement: inhibition: dose or concentration left out as unconfirmed. As to conditions: read-out: antiviral effect, B5.
For experiment [4], the system named is coxsackie B virus strain 3. The experiment can be described thus: CPE inhibition in mammalian cell culture, Cox-B3. Further details: inhibition: dose or concentration left out as unconfirmed. The note with it: for inhibition at 5000 µM / inhibition / inhibition at 1000 µM: read-out: antiviral effect, B3; for inhibition at 0.01 µM: read-out: % inh.
The subject of a further experiment is polio virus strain 1. Briefly: microbe, parasite or virus in culture. As to conditions: read-out: antiviral effect, Polio 1. The arrangement: inhibition: dose or concentration left out as unconfirmed.
The subject of another experiment is Enterovirus strain 6. The experiment can be described thus: microbe, parasite or virus in culture. Further details: inhibition: dose or concentration left out as unconfirmed. The note with it: for inhibition: read-out: antiviral effect, EV6.
Experiment [5] deals with coxsackie B virus strain 4. The experiment can be described thus: CPE inhibition in mammalian cell culture, Cox-B4. As to conditions: read-out: antiviral effect, B4. The arrangement: inhibition: dose or concentration left out as unconfirmed.
In experiment [6] the test system is coxsackie B virus strain 2. The experiment can be described thus: CPE inhibition in mammalian cell culture, Cox-B2. The arrangement: inhibition: dose or concentration left out as unconfirmed. As to conditions: read-out: antiviral effect, B2.
The next experiment has as its system Ljungan virus strain 012. Briefly: CPE inhibition in mammalian cell culture, LV012. The note with it: Parechovirus B, read-out: antiviral effect, LV012; for inhibition at 5 µM: Conc. 5 µM; for inhibition at 100 µM: Conc. 0.1 mM; for inhibition at 1 µM: Conc. 1 µM.
For the next experiment, the system named is Enterovirus strain 30. Briefly: CPE inhibition in mammalian cell culture, EV30. The note with it: for inhibition at 5 µM: Conc. 5 µM; for inhibition at 5 µM / inhibition at 100 µM / inhibition at 1 µM: read-out: antiviral effect, EV30; for inhibition at 100 µM: Conc. 0.1 mM; for inhibition at 1 µM: Conc. 1 µM.
Experiment [7] concerns encephalomyocarditis virus. The experiment can be described thus: CPE inhibition in mammalian cell culture, EMCV. As to conditions: Cardiovirus A; Conc. 0.1 mM; read-out: antiviral effect, EMCV.
In a further experiment the test system is Enterovirus strain 71. Briefly: CPE inhibition in mammalian cell culture, EV71. The note with it: for inhibition at 100 µM: Conc. 0.1 mM, read-out: antiviral effect, EV71.
Another experiment relates to Ljungan virus strain 145. The experiment can be described thus: CPE inhibition in mammalian cell culture, LV145. As to conditions: Parechovirus B; Conc. 0.1 mM; read-out: antiviral effect, LV145.
A further experiment concerns EV68. Briefly: CPE inhibition in mammalian cell culture, EV68. Further details: antiviral effect, EV68: unit of the concentration uncertain.

On to `COc1ccc(-c2c(C)nn3c(NCc4ccc(Cl)cc4)cc(C)nc23)cc1OC` [Ex. 1, N-[(4-chlorophenyl)methyl]-3-(3,4-dimethoxyphenyl)-2,5-dimethyl-pyrazolo[1,5-a]pyrimidin-7-amine], for which the inhibition at 5000 µM in experiment [1] was 93%; in experiment [3], 90%; in experiment [4], 95%; with polio virus strain 1, 31%; in experiment [5], 86%; in experiment [6], 60%. Moreover, the inhibition at 5 µM in [2] came out at 14%; in the experiment with Ljungan virus strain 012, 34%; in the experiment on Enterovirus strain 30, 100%. Also, the inhibition in the experiment on Enterovirus strain 6 (Conc.) amounted to 90%. Moreover, the inhibition at 0.25 µM in the experiment with Enterovirus strain 6 (read-out: % inh.) was found to be 75%.
Consider `COc1ccc(CNc2cc(C)nc3c(-c4ccc(OC)c(OC)c4)c(C)nn23)cc1` [Ex. 2, 3-(3,4-dimethoxyphenyl)-N-[(4-methoxyphenyl)methyl]-2,5-dimethyl-pyrazolo[1,5-a]pyrimidin-7-amine], for which the inhibition at 5000 µM in [1] was determined as 91%; in experiment [3], 91%; in experiment [4], 97%; with polio virus strain 1, 90%; in experiment [5] it was 86%; in experiment [6], 93%. Moreover, the results for the inhibition at 5 µM (in [2]; with Ljungan virus strain 012; in the experiment with Enterovirus strain 30) were 0%, 49% and 91%, respectively. In the experiment on Enterovirus strain 6 (Conc.), the inhibition was found to be 83%. This molecule also displayed an inhibition at 0.25 µM with Enterovirus strain 30 (EV30, Conc. 0.25 μM) of 85%.
On to `COc1ccc(-c2c(C)nn3c(NCc4ccncc4)cc(C)nc23)cc1OC` [Ex. 75, 3-(3,4-dimethoxyphenyl)-2,5-dimethyl-N-(4-pyridylmethyl)pyrazolo[1,5-a]pyrimidin-7-amine], for which the inhibition at 100 µM came out at 0% in experiment [7]; 0% in experiment [2]; 85% in the experiment on Enterovirus strain 71; 0% in the experiment with Ljungan virus strain 145; 0% in the experiment with Ljungan virus strain 012; 100% in the experiment with Enterovirus strain 30. Further, the inhibition in [1] is 100%; in experiment [3], 98%; in experiment [4], 89%; in the experiment on polio virus strain 1, 100%; in the experiment with Enterovirus strain 6, 90%; in [5], 100%. The inhibition in experiment [6] amounted to 100%. Further, in experiment [4], the inhibition at 0.01 µM is 85%. In addition, the “antiviral effect, EV68” value with EV68 (Conc. 0.1 (unit uncertain)) is 31%.
For `COc1ccc(CNc2cc(C)nc3c(-c4ccc(OC)c(OC)c4)c(C)nn23)cn1` [Ex. 79, 3-(3,4-dimethoxyphenyl)-N-[(6-methoxy-3-pyridyl)methyl]-2,5-dimethyl-pyrazolo[1,5-a]pyrimidin-7-amine], the inhibition at 100 µM in [7] is 0%; in experiment [2], 0%; in the experiment on Enterovirus strain 71 it was 88%; in the experiment on Ljungan virus strain 145, 0%; in the experiment with Ljungan virus strain 012 it was 0%; in the experiment on Enterovirus strain 30, 10%. In addition, the inhibition in experiment [1] is 88%; in [3], 98%; in experiment [4], 87%; in the experiment on polio virus strain 1, 79%; in the experiment on Enterovirus strain 6, 0%; in experiment [5] it was 78%. Further, the inhibition in experiment [6] is 84%. Further, the “antiviral effect, EV68” value in the experiment on EV68 (Conc. 0.1 (unit uncertain)) is on record as 46%. Further, the inhibition at 1 µM with EV68 (EV68, Conc. 1 μM) is 51%.
As for `COc1ccc(-c2c(C)nn3c(NCc4ccc(NS(C)(=O)=O)cc4)cc(C)nc23)cc1OC` [Ex. 80, N-[4-[[[3-(3,4-dimethoxyphenyl)-2,5-dimethyl-pyrazolo[1,5-a]pyrimidin-7-yl]amino]methyl]phenyl]methanesulfonamide], the inhibition at 1000 µM in experiment [1] worked out at 78%; in [3], 97%; in experiment [4], 78%; in the experiment on polio virus strain 1, 85%; in [5], 78%; in [6] it was 96%. Also, the inhibition at 1 µM in experiment [2] (Conc. 1 µM) worked out at 0%; in the experiment on Enterovirus strain 6 (read-out: % inh.), 93%; with Ljungan virus strain 012, 0%; in the experiment with Enterovirus strain 30 it was 90%. In the experiment on EV68 (Conc. 1 (unit uncertain)), the “antiviral effect, EV68” value was 30%.
On to `COc1ccc(-c2c(C)nn3c(NCc4ccc(O)cc4)cc(C)nc23)cc1OC` [Ex. 81, 4-[[[3-(3,4-dimethoxyphenyl)-2,5-dimethyl-pyrazolo[1,5-a]pyrimidin-7-yl]amino]methyl]phenol], for which the inhibition at 100 µM in experiment [7] is 0%; in experiment [2], 0%; in the experiment on Enterovirus strain 71, 86%; in the experiment on Ljungan virus strain 145 it was 0%; in the experiment with Ljungan virus strain 012, 0%; in the experiment on Enterovirus strain 30 it was 97%. Also, the inhibition at 0.01 µM in experiment [1] (read-out: % inh.) turned out to be 76%. In addition, the inhibition came to 85% in experiment [1]; 81% in experiment [3]; 87% in [4]; 89% in the experiment with polio virus strain 1; 62% in the experiment on Enterovirus strain 6; 77% in [5]. Moreover, in experiment [6], the inhibition was 88%. Besides, the “antiviral effect, EV68” value in the experiment on EV68 (Conc. 0.1 (unit uncertain)) is reported as 29%.
Take `COc1ccc(-c2c(C)nn3c(NCc4cccc(S(C)(=O)=O)c4)cc(C)nc23)cc1OC` [Ex. 82, 3-(3,4-dimethoxyphenyl)-2,5-dimethyl-N-[(3-methylsulfonylphenyl)methyl]pyrazolo[1,5-a]pyrimidin-7-amine]: the inhibition at 100 µM in [7] was 0%; in the experiment on Ljungan virus strain 145 it was 0%; with Ljungan virus strain 012, 0%; with Enterovirus strain 30, 94%. The inhibition in [1] is 95%; in experiment [3], 89%; in [4], 91%; with polio virus strain 1, 100%; in the experiment with Enterovirus strain 6, 89%; in [5], 100%. Besides, in experiment [6], the inhibition is 98%. Moreover, the inhibition at 0.01 µM in experiment [4] turned out to be 82%. Moreover, the “antiviral effect, EV68” value with EV68 (Conc. 0.1 (unit uncertain)) was determined as 24%.
In the case of `COc1ccc(-c2cnn3c(NCc4ccncc4)cc(C)nc23)cc1OC` [Ex. 100, 3-(3,4-dimethoxyphenyl)-5-methyl-N-(4-pyridylmethyl)pyrazolo[1,5-a]pyrimidin-7-amine], the inhibition at 100 µM was determined as 0% in experiment [7]; 81% with Enterovirus strain 71; 0% with Ljungan virus strain 145; 0% in the experiment with Ljungan virus strain 012; 78% in the experiment on Enterovirus strain 30. In addition, the inhibition in experiment [3] is 90%; with polio virus strain 1, 83%; in the experiment on Enterovirus strain 6, 88%; in experiment [6] it was 99%. This molecule displayed an inhibition at 0.1 µM in the experiment on Enterovirus strain 30 (EV30, Conc. 0.1 μM) of 78%.
Turning to `COc1ccc(-c2cnn3c(NCc4cccc(S(C)(=O)=O)c4)cc(C)nc23)cc1OC` [Ex. 101, 3-(3,4-dimethoxyphenyl)-5-methyl-N-[(3-methylsulfonylphenyl)methyl]pyrazolo[1,5-a]pyrimidin-7-amine], the inhibition at 100 µM was determined as 0% in experiment [7]; 99% in the experiment on Enterovirus strain 71; 0% with Ljungan virus strain 145; 0% in the experiment with Ljungan virus strain 012; 89% with Enterovirus strain 30. In addition, the inhibition worked out at 29% in [3]; 90% in [4]; 100% in the experiment with polio virus strain 1; 44% in the experiment with Enterovirus strain 6; 99% in [6]. This molecule also registered an inhibition at 0.1 µM with Enterovirus strain 71 (EV71, Conc. 0.1 μM) of 99%.
Regarding `COc1ccc(-c2c(C)nn3c(NCc4ccc(F)cc4)cc(C(C)C)nc23)cc1OC` [Ex. 111, 3-(3,4-dimethoxyphenyl)-N-[(4-fluorophenyl)methyl]-5-isopropyl-2-methyl-pyrazolo[1,5-a]pyrimidin-7-amine], the inhibition at 0.1 µM in experiment [1] (read-out: % inh.) stood at 68%. Also, the inhibition at 1000 µM in experiment [1] is 97%; in experiment [3], 99%; in [4] it was 100%; in the experiment on polio virus strain 1, 100%; in experiment [5] it was 98%; in experiment [6], 96%. Besides, the results for the inhibition at 1 µM in the experiment on Ljungan virus strain 012 and in the experiment on Enterovirus strain 30 were 0% and 80%, respectively. Moreover, in the experiment with EV68 (Conc. 1 (unit uncertain)), the “antiviral effect, EV68” value came to 40%.
